TGI data for 5 compounds are collected here from PubChem BioAssay (NCI).

Holding throughout (test): DTP human tumour cell line panel, 48 h
Experiment [1] has as its system ACHN renal.
Experiment [2] deals with T-47D breast.
Experiment [3] has as its system HL-60(TB) leukemia.
Experiment [4] has as its system A498 renal.
Experiment [5] concerns A549 NSCLC.
Experiment [6] has as its system HT29 colon.
Experiment [7] deals with EKVX NSCLC.
The subject of experiment [8] is TK-10 renal.
Experiment [9] concerns NCI-H23 lung.
The test system of experiment [10] is M14 melanoma.

Each structure is given as a SMILES string.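 Values below derive from 48-hour exposures of cells grown in 96-well plates, with endpoints linearly interpolated between the two concentrations bracketing the appropriate inhibition level. TGI marks complete inhibition of growth.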 A value given as a limit tells only on which side of the number the result lay.

Regarding `COC(=O)C(Cc1ccccc1)NC(=O)CNC(=O)CSc1nnc(COc2ccc(Cl)cc2)n1-c1ccccc1` (stereo not given), the TGI (usually the concentration at which net growth stops) in experiment [1] turned out to be 27.2 µM; in experiment [2] it was 51.4 µM; in experiment [3] it was 13.7 µM; in experiment [4], 29.4 µM; in [5], 34.5 µM; in [6] it was 35.3 µM. Besides, the TGI came to 39.9 µM in experiment [7], 27.7 µM in experiment [8], 35.6 µM in experiment [9] and 31.7 µM in experiment [10].

Turning to `CCCCCC(C)C[C@H]1CO[C@H](c2ccc[nH]2)N[C@H]1C(=O)OC` (stereo not given in full), the TGI in experiment [1], in [2], in [3], in experiment [4], in experiment [5] and in [6] was greater than 100 µM throughout. Besides, the TGI in [7], in [8], in experiment [9] and in experiment [10] was greater than 100 µM throughout.

`COc1cccc(C2c3cc4c(cc3OC(N3CCOCC3)C2C)OCO4)c1O` (stereo not given): the TGI is 72 µM in [1]; 36.4 µM in [2]; 6.69 µM in experiment [3]; 20.8 µM in experiment [4]; 66.5 µM in experiment [5]; 28.8 µM in experiment [6]. For the same compound, the TGI turned out to be 98.9 µM in experiment [7], 83.6 µM in [8], 52.6 µM in experiment [9] and 25 µM in [10].

Regarding `COC(=O)c1c(O)ccc2c1c1c(n2C)C(=O)c2ccccc2C1=O`, the TGI in [1] is 35.8 µM; in experiment [2], 13.1 µM; in experiment [3], greater than 100 µM; in experiment [4], greater than 100 µM; in experiment [5] it was greater than 100 µM; in [6] it was greater than 100 µM. Moreover, the TGI in experiment [7] was greater than 100 µM; in experiment [8], 86.4 µM; in [9], 78.2 µM; in experiment [10], greater than 100 µM.

Turning to `CCN(CC)CCNc1ccc(N=Nc2ccc(S(N)(=O)=O)cc2)c2ccccc12`, the TGI in experiment [1] turned out to be 38.8 µM; in experiment [2], 8.27 µM; in experiment [3] it was 36.9 µM; in experiment [4], 29.7 µM; in experiment [5], 40.5 µM; in experiment [6], 34.9 µM. Further, the TGI in experiment [7] is 41.2 µM; in [8], 40.3 µM; in [9], 50.7 µM; in experiment [10] it was 23.3 µM.
